Results as given in PubChem BioAssay AID1205 (EPA DSSTox, 2008).
Calls of active or inactive are those of the source.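 How the source made its calls: active means tumour findings in long-term animal cancer tests in more than one sex, species or organ; inactive means no tumour finding and more than one negative test.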

Assay: DSSTox (CPDBAS) Carcinogenic Potency Database Summary MultiCellCall Results
Conditions: animal carcinogenicity bioassays, multi-cell call summary
From the text: The Carcinogenic Potency Database (CPDB) is a unique and widely used international resource of the results of over 6500 chronic, long-term animal cancer tests on over 1500 chemical substances. The CPDB provides easy access to the bioassay literature, with qualitative and quantitative analyses of both positive and negative experiments that have been published over the past 50 years in the general literature and by the National Cancer Institute/National Toxicology Program. The CPDB standardizes the diverse literature of cancer bioassays that vary widely in protocol, histopathological examination and nomenclature, and in the published author's choices of what information to provide in their papers. Results are reported in the CPDB for tests in rats, mice, hamsters, dogs, and nonhuman primates, and are based on the most positive result among all experiments for each sex-species. The DSSTox CPDBAS (all species) file incorporates data from the CPDB Summary Tables for the full list of over 1500 chemical substances tested in at least one species. A summary MultiCellCall, based on experimental bioassay results of one or more species, is provided in the DSSTox CPDBAS file (see Source URL) for more than 1150 chemical substances.
Associated TD50 values and tumor site details for the relevant species/sex experiment supporting the overall CPDBAS MultiSiteCall are provided in the full DSSTox CPDBAS file (see Comment) and the corresponding CPDBAS Species Bioassay in PubChem. ActivityScore is computed as follows: multispecies=50, multisex=30, multisite=20, with combination scores computed as sums of these values, e.g. multispecies+multisite=70.

Row | Structure (SMILES) | outcome
1 | Cc1c(N)cccc1N | inactive; multisex inactive; multispecies inactive
2 | Cn1cc[nH]c1=S | active; multisex active
3 | CCCCCCCCCCCCN(C)N=O | active; multisite active; multisex active
4 | CCn1cc(C(=O)O)c(=O)c2ccc(C)nc21 | active; multisite active; multisex active
5 | CC[C@H](C)C(=O)O[C@H]1C[C@@H](C)C=C2C=C[C@H](C)[C@H](CC[C@@H]3C[C@@H](O)CC(=O)O3)[C@H]21 | active; multisite active; multisex active
6 | CCCCOCCO | active; multisite active; multisex active
7 | O=c1c(CO)c/c(=N/Nc2ccc(S(=O)(=O)O)c3ccccc23)c(=O)/c1=N/Nc1ccc(S(=O)(=O)O)c2ccccc12 | inactive; multisex inactive
8 | COc1cccc2c1C(=O)c1c(O)c3c(c(O)c1C2=O)C[C@@](O)(C(=O)CO)C[C@@H]3O[C@H]1C[C@H](N)[C@H](O)[C@H](C)O1 | inactive; multispecies inactive
9 | BrC(Br)Br | active; multisex active
10 | Clc1ccc(-c2cccc(Cl)c2Cl)c(Cl)c1 | active; multisite active; multisex active
11 | C=C/C=N/O | inactive; multisex inactive
12 | CC(C)(C)c1cc([N+](=O)[O-])cc([N+](=O)[O-])c1OS(C)(=O)=O | inactive; multisex inactive
13 | O=C1CCO1 | active; multisex active; multispecies active
14 | CC(O)CCl (stereo not given) | inactive; multisex inactive; multispecies inactive
15 | CCOCCc1c(-c2ccccc2)nc(N)n2ncnc12 | active; multisite active; multisex active
16 | CC[C@H](OC(C)=O)C(C[C@H](C)N(C)C)(c1ccccc1)c1ccccc1 | active; multisex active
17 | CCN(Cc1cccc(S(=O)(=O)O)c1)c1ccc(C(=C2C=CC(=[N+](CC)Cc3cccc(S(=O)(=O)O)c3)C=C2)c2ccc(O)cc2S(=O)(=O)[O-])cc1 | inactive; multisex inactive; multispecies inactive
18 | O=c1cc[nH]c(=S)[nH]1 | active; multisite active; multisex active; multispecies active
19 | O=c1cc[nH]c(=O)[nH]1 | active; multisex active; multispecies active
20 | Cc1ccc2c(c1N)C(=O)c1ccccc1C2=O | active; multisite active; multisex active; multispecies active
21 | O=[N+]([O-])c1ccc(-c2cnc3ccccn23)o1 | active; multisite active; multisex active; multispecies active
22 | CCCCC(C)(O)C/C=C/[C@H]1[C@H](O)CC(=O)[C@@H]1CCCCCCC(=O)OC (stereo not given in full) | inactive; multisex inactive; multispecies inactive
23 | O=S(=O)(O)c1ccc(N=Nc2c(O)ccc3cc(S(=O)(=O)O)ccc23)cc1 | inactive; multisex inactive; multispecies inactive

Row | Structure (SMILES) | outcome
24 | CCN(C)N=O | active; multisite active
25 | Nc1ccc(N=Nc2ccc(N)cc2)cc1 | inactive; multisex inactive
26 | CCCCNC(N)=O | inactive; multisex inactive; multispecies inactive
27 | OC[C@@H](O)[C@H]1O[C@@H]2O[C@H](C(Cl)(Cl)Cl)O[C@@H]2[C@H]1O | inactive; multisex inactive
28 | C=CCN(CC(C)O)N=O (stereo not given) | active; multisite active
29 | C=CCN(CC(O)CO)N=O (stereo not given) | active; multisite active
30 | O=C1O[C@@H](CN2CCOCC2)CN1/N=C/c1ccc([N+](=O)[O-])o1 | active; multisite active
31 | C[C@@H]1CC2(O[C@@H]2C)C(=O)O[C@@H]2CCN(C)C/C=C(/COC(=O)[C@]1(C)O)C2=O (stereo not given in full) | active; multisite active; multisex active
32 | O=C(C1CCCCC1)N1CC(=O)N2CCc3ccccc3C2C1 (stereo not given) | inactive; multisex inactive; multispecies inactive
33 | N#Cc1c(Cl)c(Cl)c(Cl)c(C#N)c1Cl | active; multisex active
34 | [Cl-].[Cl-].[Cl-].[Fe+3] | inactive; multisex inactive
35 | COc1ccc(C(=O)/C(Br)=C\C(=O)O)cc1 | active; multisite active; multisex active
36 | O=S(=O)(O)NC1CCCCC1 | active; multisite active; multisex active
37 | NNC(=O)c1ccccc1 | active; multisite active; multisex active
38 | CCCCCCCCCC[N+](C)(C)[O-] | inactive; multisex inactive
39 | F[B-](F)(F)F | inactive; multisex inactive
40 | Cc1cc(OC(=O)N(C)C)n(C(C)C)n1 | inactive; multisex inactive
41 | C=CC(N)=O | active; multisite active; multisex active
42 | NNc1ccccc1 | active; multisex active
43 | O=P(O)(O)O | inactive; multisex inactive
44 | O=C1C2(Cl)C3(Cl)C4(Cl)C(Cl)(Cl)C5(Cl)C3(Cl)C1(Cl)C5(Cl)C24Cl (stereo not given) | active; multisex active; multispecies active
45 | O=S(O)S(=O)(=O)O | inactive; multisex inactive
46 | O=[N+]([O-])c1cc([As](=O)(O)O)ccc1O | inactive; multisex inactive; multispecies inactive

Row | Structure (SMILES) | outcome
47 | O=C(O)CC[N+](=O)[O-] | inactive; multisex inactive; multispecies inactive
48 | CCC1(c2ccccc2)C(=O)N=C(O)NC1=O (stereo not given) | active; multisex active; multispecies active
49 | COc1c(Cl)c(Cl)c(Cl)c(Cl)c1Cl | active; multisite active; multispecies active
50 | C=CC#N | active; multisite active; multisex active
51 | ClC(Cl)Cl | active; multisite active; multisex active; multispecies active
52 | Brc1cc(Br)c(-c2c(Br)c(Br)c(Br)c(Br)c2Br)c(Br)c1Br | active; multisex active
53 | O=C1CCCCCN1 | inactive; multisex inactive; multispecies inactive
54 | OC[C@H]1O[C@@](CO)(O[C@H]2O[C@H](CO)[C@@H](O)[C@H](O)[C@H]2O)[C@@H](O)[C@@H]1O | inactive; multisex inactive
55 | Nc1ccc(NC(=O)c2ccc(N)cc2)cc1 | inactive; multisex inactive
56 | C#C[C@]1(O)CC[C@H]2[C@@H]3CCC4=C(CCC(=O)C4)[C@H]3CC[C@@]21C | inactive; multisex inactive
57 | CCNC(=S)NCC | active; multisex active
58 | CC1=CC(=O)NS(=O)(=O)O1 | inactive; multisex inactive
59 | Clc1ccc(C(c2ccc(Cl)cc2)C(Cl)Cl)cc1 | active; multisite active; multisex active
60 | C/C=C(\C)C(=O)O[C@@H]1CCN2CC=C(COC(=O)C(O)(C(C)C)C(C)O)[C@H]12 (stereo not given in full) | active; multisite active
61 | O=C1C(Cl)=C(Cl)C(=O)c2ccccc21 | inactive; multisex inactive
62 | CC(C)OC(=O)COc1ccc(Cl)cc1Cl | inactive; multisex inactive
63 | ClCC(Cl)CCl | active; multisite active; multisex active; multispecies active
64 | O[C@@H]([C@H](O)[C@@H](O)CBr)[C@@H](O)CBr | active; multisite active; multisex active; multispecies active
65 | O=S(=O)(Oc1ccc(Cl)cc1Cl)c1ccccc1 | inactive; multisex inactive
66 | OCCBr | active; multisex active
67 | CCOP(=S)(OCC)Oc1nc(Cl)c(Cl)cc1Cl | inactive; multisex inactive
68 | Nc1ccc(N(CCO)CCO)cc1 | inactive; multisex inactive
69 | S=c1[nH]c2ccccc2s1 | active; multisite active; multisex active

Row | Structure (SMILES) | outcome
70 | CCCCC/C=N/N(C)C=O | active; multisite active; multisex active
71 | N[C@@H](Cc1c[nH]c2ccccc12)C(=O)O | inactive; multisex inactive; multispecies inactive
72 | Oc1ccc2c(c1)OCO2 | active; multisex active; multispecies active
73 | CC(O)CO (stereo not given) | inactive; multisex inactive
74 | CCCCCCCCCCCCCCN(C)N=O | active; multisite active
75 | O=C(O)c1ccc(N=Nc2ccc(O)c(C(=O)O)c2)cc1 | inactive; multisex inactive; multispecies inactive
76 | O=[N+]([O-])c1cccc2ccccc12 | inactive; multisex inactive; multispecies inactive
77 | Oc1ccc2ccccc2c1N=Nc1ccccc1 | active; multisex active
78 | NC(=O)N/N=C/c1ccc([N+](=O)[O-])o1 | active; multisite active; multispecies active
79 | CN(CCCO)N=O | active; multisite active; multisex active
80 | Cc1c([N+](=O)[O-])c(C)c([N+](=O)[O-])c(C(C)(C)C)c1[N+](=O)[O-] | active; multisite active; multisex active
81 | Oc1ccc(-c2ccccc2)cc1 | inactive; multisex inactive
82 | O=C(OOC(=O)c1ccccc1)c1ccccc1 | inactive; multispecies inactive
83 | CCN(CC)C(=S)SSC(=S)N(CC)CC | inactive; multisex inactive; multispecies inactive
84 | CN(C)C(=S)[S][Bi]([S]C(=S)N(C)C)[S]C(=S)N(C)C | inactive; multisex inactive
85 | O=C1CN=C(c2ccccc2)c2cc(Cl)ccc2N1CC1CC1 | inactive; multisex inactive; multispecies inactive
86 | O.O.O.O.O=C([O-])CC(O)(CC(=O)[O-])C(=O)[O-].[Fe+3] | inactive; multisex inactive
87 | C[C@]12CC[C@H](OS(=O)(=O)O)CC1=CC[C@@H]1[C@@H]2CC[C@]2(C)C(=O)CC[C@@H]12 | inactive; multisex inactive
88 | CC(COc1ccc(C(C)(C)C)cc1)OS(=O)OCCCl (stereo not given) | active; multispecies active
89 | O=[N+]([O-])c1ccc(NCCO)c(OCCO)c1 | inactive; multisex inactive; multispecies inactive
90 | Oc1cccc2cccnc12 | inactive; multisex inactive; multispecies inactive
